The source of these data is the NIST ThermoML archive (doi:10.1021/je3010535).

The data set can be described thus: Henry's Law constant (molality scale); of the first substance listed, at infinite dilution; xn = mol fraction of the nth substance listed. As to conditions: Liquid, Chromatography, x1 = 0.

“And” between values parts separate entries of the source, which are not always exact repeats. Identical values can stand only once. ± gives the expanded uncertainty stated by the source.

`CC(Cl)(Cl)Cl` [1,1,1-trichloroethane] + O: the “Henry's Law constant” value by setting is: (274.15 K) 484 ± 150 kPa·kg/mol; (294.65 K) 1410 kPa·kg/mol and 1210 kPa·kg/mol; (296.15 K) 1430 ± 430 kPa·kg/mol; (313.15 K) 2680 ± 800 kPa·kg/mol; (326.15 K) 4510 ± 1400 kPa·kg/mol.
As to `ClC(Cl)C(Cl)Cl` [1,1,2,2-tetrachloroethane] + O, the “Henry's Law constant” value is, setting by setting: (274.15 K) 3.6 ± 1.1 kPa·kg/mol; (294.65 K) 31.2 kPa·kg/mol and 17.9 kPa·kg/mol; (296.15 K) 34.4 ± 10 kPa·kg/mol; (310.15 K) 99 ± 30 kPa·kg/mol; (320.15 K) 156 ± 47 kPa·kg/mol; (331.15 K) 262 ± 79 kPa·kg/mol.
Take `ClC(Cl)=C(Cl)C(Cl)=C(Cl)Cl` [1,1,2,3,4,4-hexachloro-1,3-butadiene] + O: the “Henry's Law constant” value turned out to be 145 kPa·kg/mol (274.15 K); 287 kPa·kg/mol (296.15 K); 366 kPa·kg/mol (310.15 K); 2180 kPa·kg/mol (313.15 K); 3830 kPa·kg/mol (326.15 K).
`FC(F)(Cl)C(F)(Cl)Cl` [1,1,2-trichloro-1,2,2-trifluoroethane] + O: the “Henry's Law constant” value (274.15 K) worked out at 1070 ± 320 kPa·kg/mol, the “Henry's Law constant” value (313.15 K) worked out at 16800 ± 5000 kPa·kg/mol and the “Henry's Law constant” value (326.15 K) came out at 20100 ± 6000 kPa·kg/mol.
`CC=C(Cl)Cl` [1,1-dichloro-1-propene] + O: the “Henry's Law constant” value is 556 ± 170 kPa·kg/mol (274.15 K); 1480 kPa·kg/mol and 1360 kPa·kg/mol (294.65 K); 1460 ± 440 kPa·kg/mol (296.15 K); 3190 ± 960 kPa·kg/mol (313.15 K); 5570 ± 1700 kPa·kg/mol (326.15 K).
In the case of `CC(Cl)Cl` [1,1-dichloroethane] + O, the “Henry's Law constant” value runs as follows: (274.15 K) 188 ± 56 kPa·kg/mol; (313.15 K) 953 ± 290 kPa·kg/mol; (326.15 K) 1560 ± 470 kPa·kg/mol.
For `C=C(Cl)Cl` [1,1-dichloroethene] + O the same measures were 787 ± 240 kPa·kg/mol, 4460 ± 1300 kPa·kg/mol and 10500 ± 3200 kPa·kg/mol.
Turning to `Clc1cccc(Cl)c1Cl` [1,2,3-trichlorobenzene] + O, the “Henry's Law constant” value is, setting by setting: (274.15 K) 17.8 ± 5.3 kPa·kg/mol; (294.65 K) 56.4 kPa·kg/mol and 54.8 kPa·kg/mol; (296.15 K) 63 ± 19 kPa·kg/mol; (310.15 K) 124 ± 37 kPa·kg/mol; (320.15 K) 199 ± 60 kPa·kg/mol; (331.15 K) 324 ± 97 kPa·kg/mol.
Consider `ClCC(Cl)CCl` [1,2,3-trichloropropane] + O, for which the “Henry's Law constant” value is 2.98 ± 0.89 kPa·kg/mol (274.15 K); 23 kPa·kg/mol and 13.6 kPa·kg/mol (294.65 K); 28.3 ± 8.5 kPa·kg/mol (296.15 K); 78.2 ± 23 kPa·kg/mol (310.15 K); 113 ± 34 kPa·kg/mol (320.15 K); 208 ± 62 kPa·kg/mol (331.15 K). Moreover, the “Henry's Law constant” value (333.15 K) was 370 ± 110 kPa·kg/mol.
For `ClCC(Br)CBr` (stereo not drawn) [1,2-dibromo-3-chloropropane] + O, the “Henry's Law constant” value by setting is: (274.15 K) 1.28 ± 0.38 kPa·kg/mol; (294.65 K) 7.76 kPa·kg/mol and 9.37 kPa·kg/mol; (296.15 K) 11.8 ± 3.5 kPa·kg/mol; (310.15 K) 28.1 ± 8.4 kPa·kg/mol; (320.15 K) 49.7 ± 15 kPa·kg/mol; (331.15 K) 101 ± 30 kPa·kg/mol. Besides, the “Henry's Law constant” value (333.15 K) came to 133 ± 40 kPa·kg/mol.
As for `Clc1ccccc1Cl` [1,2-dichlorobenzene] + O, the “Henry's Law constant” value reads like this: (274.15 K) 41.1 ± 12 kPa·kg/mol; (294.65 K) 102 kPa·kg/mol and 115 kPa·kg/mol; (296.15 K) 119 ± 36 kPa·kg/mol; (310.15 K) 208 ± 62 kPa·kg/mol; (320.15 K) 350 ± 100 kPa·kg/mol; (331.15 K) 510 ± 150 kPa·kg/mol.
Consider `ClCCCl` [1,2-dichloroethane] + O, for which the “Henry's Law constant” value was 42.9 ± 13 kPa·kg/mol (274.15 K); 98.2 kPa·kg/mol and 102 kPa·kg/mol (294.65 K); 105 ± 32 kPa·kg/mol (296.15 K); 211 ± 63 kPa·kg/mol (310.15 K); 389 ± 120 kPa·kg/mol (320.15 K); 517 ± 160 kPa·kg/mol (331.15 K).
Turning to `CC(Cl)CCl` (stereo not drawn) [1,2-dichloropropane] + O, the “Henry's Law constant” value was 70.7 ± 21 kPa·kg/mol (274.15 K); 217 kPa·kg/mol and 198 kPa·kg/mol (294.65 K); 225 ± 67 kPa·kg/mol (296.15 K); 418 ± 130 kPa·kg/mol (310.15 K); 699 ± 210 kPa·kg/mol (326.15 K); 1210 ± 360 kPa·kg/mol (331.15 K).
For `Cc1cc(C)cc(C)c1` [1,3,5-trimethylbenzene] + O, the “Henry's Law constant” value was 115 ± 46 kPa·kg/mol (274.15 K); 304 kPa·kg/mol and 352 kPa·kg/mol (294.65 K); 408 ± 160 kPa·kg/mol (296.15 K); 719 ± 290 kPa·kg/mol (310.15 K); 1330 ± 530 kPa·kg/mol (313.15 K); 2360 ± 940 kPa·kg/mol (326.15 K). Further, the “Henry's Law constant” value (331.15 K) came out at 1830 ± 730 kPa·kg/mol.
For the compound `C1COCCO1` [1,4-dioxane] + O, the “Henry's Law constant” value runs as follows: (274.15 K) 0.0629 ± 0.019 kPa·kg/mol; (294.65 K) 0.482 kPa·kg/mol and 0.35 kPa·kg/mol; (296.15 K) 0.419 ± 0.13 kPa·kg/mol; (310.15 K) 0.84 ± 0.25 kPa·kg/mol; (320.15 K) 2 ± 0.6 kPa·kg/mol; (331.15 K) 3.92 ± 1.2 kPa·kg/mol.
With `Cc1ccc(C(C)C)cc1` [1-(1-methylethyl)-4-methylbenzene] + O, the “Henry's Law constant” value (274.15 K) stood at 157 ± 63 kPa·kg/mol; the “Henry's Law constant” value (294.65 K) was 389 kPa·kg/mol and 469 kPa·kg/mol; the “Henry's Law constant” value (296.15 K) came to 502 ± 200 kPa·kg/mol; the “Henry's Law constant” value (310.15 K) is 777 ± 310 kPa·kg/mol; the “Henry's Law constant” value (313.15 K) came out at 2150 ± 860 kPa·kg/mol; the “Henry's Law constant” value (326.15 K) stood at 3440 ± 1400 kPa·kg/mol. Further, under “331.15 K”, the “Henry's Law constant” value was 1830 ± 730 kPa·kg/mol.
